Here are results for four compounds from patent publication US9169241B2, “Quinolinyloxyphenylsulfonamides” (Max-Planck-Gesellschaft Zur Forderung der Wissenschaften …, priority 2009, dated 2015).

A value given as a limit tells only on which side of the number the result lay.

Common to all, as to test: Cell vitality assay (ATP assay, CellTiter-Glo)
Format in all cases: cell-based
(In general: Cellular ATP, detected with luciferase, serves as a proxy for viable cell number.)

One assay has as its system Panc-1. The conditions noted are these: Homo sapiens, Table IIb. An outline of the steps: (§1)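 Steps: seed 1000 cells per well; add compound (0.195–12.5 μM, 7 points) or DMSO; incubate 72 h; equilibrate to room temperature ~30 min; add reagent, shake 2 min, stand 10 min; read luminescence. IC50 relative to DMSO-control ATP.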
For the next assay, the system named is PC3. The conditions noted are these: Homo sapiens, PC-3, Table IIb. An outline of the steps:
as §1

For the next assay, the system named is 786-0. The following applies: Homo sapiens, Table IIb. An outline of the steps: as §1
In a further assay the test system is U373. The following applies: Homo sapiens, U373 MG, Table IIc. An outline of the steps: as §1
Another assay concerns H460. The following applies: Homo sapiens, NCI-H460, Table IIc. An outline of the steps:
as §1

In another assay the test system is Aspc-1. The following applies: Homo sapiens, ASPC1, Table IIb. An outline of the steps:
as §1

Another assay relates to MDA-MB435s. The conditions noted are these: Homo sapiens, MDA-MB-435S, Table IIc. An outline of the steps:
as §1

In a further assay the test system is HT29. The following applies: Homo sapiens, HT-29, Table IIc. An outline of the steps: as §1
The subject of a further assay is DU145. The conditions noted are these: Homo sapiens, DU-145, Table IIb. An outline of the steps:
as §1

A further assay deals with MiaPaca-2. The conditions noted are these: Homo sapiens, MIA PaCa-2, Table IIb. An outline of the steps:
as §1

A further assay deals with A549. The conditions noted are these: Homo sapiens, Table IIc. An outline of the steps:
as §1

Another assay relates to MCF10A. The following applies: Homo sapiens, MCF-10A, Table IIb. An outline of the steps:
as §1

The IC50 is the midpoint of a concentration-inhibition curve. High values mean lower potency, low ones higher potency. For `COc1cc2c(Oc3ccc(NS(=O)(=O)c4cc(F)ccc4F)cc3F)ccnc2cc1OCCCN1CCCCC1` [Example 1, 2,5-Difluoro-N-{3-fluoro-4-[6-methoxy-7-(3-piperidin-1-yl-propoxy)-quinolin-4-yloxy]-phenyl}-benzenesulfonamide], the IC50 was 12.5 to 50 µM with Panc-1; no more than 12.5 µM in the assay with PC3; 12.5 to 50 µM with 786-0; no more than 12.5 µM in the assay with U373; no more than 12.5 µM with H460; no more than 12.5 µM in the assay with Aspc-1. Besides, the half-inhibitory concentration (IC50) in the assay with MDA-MB435s, in the assay on HT29, in the assay with DU145, in the assay on MiaPaca-2 and in the assay on A549 was no more than 12.5 µM in each case.
As for `COc1cc2c(Oc3ccc(NS(=O)(=O)c4cc(F)ccc4F)cc3F)ccnc2cc1OCCCN1CCN(C)CC1` [Example 12, 2,5-Difluoro-N-(3-fluoro-4-{6-methoxy-7-[3-(4-methyl-piperazin-1-yl)-propoxy]-quinolin-4-yloxy}-phenyl)-benzenesulfonamide], the IC50 with Panc-1 was 12.5 to 50 µM; in the assay on PC3, no more than 12.5 µM; in the assay with 786-0, no more than 12.5 µM; in the assay on U373, no more than 12.5 µM; in the assay on H460, no more than 12.5 µM; in the assay with Aspc-1 it was no more than 12.5 µM. For the same compound, the IC50 in the assay with MDA-MB435s, in the assay with HT29, in the assay on DU145, in the assay with MiaPaca-2 and in the assay with A549 was no more than 12.5 µM each time.
As to `COc1cc2c(Oc3ccc(NS(=O)(=O)c4ccccc4C(F)(F)F)cc3F)ccnc2cc1OCCCN1CCN(C)CC1` [Example 24, N-(3-Fluoro-4-{6-methoxy-7-[3-(4-methyl-piperazin-1-yl)-propoxy]-quinolin-4-yloxy}-phenyl)-2-trifluoromethyl-benzenesulfonamide], the half-inhibitory concentration (IC50) in the assay with Panc-1 is 12.5 to 50 µM; in the assay on PC3, 12.5 to 50 µM; in the assay on 786-0, no more than 12.5 µM; in the assay with U373, no more than 12.5 µM; in the assay on H460 it was no more than 12.5 µM; with Aspc-1, no more than 12.5 µM. Moreover, the IC50 in the assay on MDA-MB435s, in the assay with MCF10A, with HT29, in the assay on DU145, with MiaPaca-2 and with A549 was no more than 12.5 µM throughout.
As for `COC(=O)c1sccc1S(=O)(=O)Nc1ccc(Oc2ccnc3cc(OCCCN4CCCC(C)C4)c(OC)cc23)c(F)c1` (stereo not drawn) [Example 66, 3-(3-Fluoro-4-{6-methoxy-7-[3-(3-methyl-piperidin-1-yl)-propoxy]-quinolin-4-yloxy}-phenylsulfamoyl)-thiophene-2-carboxylic acid methyl ester], the IC50 with Panc-1, in the assay with PC3, with 786-0, with U373, with H460 and in the assay on Aspc-1 was no more than 12.5 µM each time. Besides, the IC50 in the assay with MDA-MB435s, with HT29, with DU145, in the assay with MiaPaca-2 and in the assay on A549 was no more than 12.5 µM each time.
